For one compound, IC50 results are on record in US20060281728A1, “3-Substituted beta-lactamyl vasopressin v1a antagonists” (priority 2003, published 2006).

This test addresses human V1a receptor (Homo sapiens, UniProt P37288). The experiment in a line: Human vasopressin V1a receptor binding assay. Conditions: competitive binding against 1 nM 3H-AVP, hV1a cell line (CHO cells), 45 minutes at 37° C. On the procedure: A cell line expressing the human V1a receptor in CHO cells (henceforth referred to as the hV1a cell line) was obtained from Dr. Michael Brownstein, NIMH, Bethesda, Md., USA. The hV1a cDNA sequence is described by Thibonnier et al., Journal of Biological Chemistry, 269:3304-3310 (1994), and the expression method was the same as described by Morel et al. (1992). The hV1a cell line was grown in alpha-MEM with 10% fetal bovine serum and 250 ug/ml G418 (Gibco, Grand Island, N.Y., USA). For competitive binding assay, hV1a cells were plated into 6-well culture plate at 1:10 dilution from a confluency flask, and maintained in culture for at least two days. Culture medium was then removed, cells were washed with 2 ml binding buffer (25 mM Hepes, 0.25% BSA, 1×DMEM, PH=7.0). To each well, 990 μl binding buffer containing 1 nM 3H-AVP was added, and followed by 10 μl series diluted Example compounds dissolved in DMSO. All incubations were in triplicate, and dose-inhibition curves consisted of total binding (DMSO) and 5 concentrations (0.1, 1.0, 10, 100, and 1000 nM) of test agents encompassing the IC50. 100 nM cold AVP (Sigma) was used to assess non-specific binding. […] Samples were counted in a liquid scintillation counter (Beckman LS3801). IC50 values were calculated by Prism Curve fitting software.

Sequence of human V1a receptor (P37288 whole entry): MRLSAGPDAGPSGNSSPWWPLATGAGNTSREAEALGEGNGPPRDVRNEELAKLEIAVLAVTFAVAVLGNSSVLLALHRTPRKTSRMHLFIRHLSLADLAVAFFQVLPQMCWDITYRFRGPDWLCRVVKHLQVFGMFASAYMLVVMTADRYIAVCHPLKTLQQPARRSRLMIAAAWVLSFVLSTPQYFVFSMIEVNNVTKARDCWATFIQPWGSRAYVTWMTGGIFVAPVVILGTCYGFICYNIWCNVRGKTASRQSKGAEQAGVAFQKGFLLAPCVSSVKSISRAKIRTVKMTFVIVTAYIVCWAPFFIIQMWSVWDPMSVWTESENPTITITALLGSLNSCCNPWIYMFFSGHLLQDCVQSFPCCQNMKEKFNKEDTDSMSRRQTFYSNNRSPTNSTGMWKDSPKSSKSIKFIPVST

In the case of `C[C@@]1(N2C(=O)OC[C@@H]2c2ccccc2)C(=O)N([C@H](CC(=O)N2CCC(N3CCCCC3)CC2)C(=O)NCc2cccc(C(F)(F)F)c2)[C@@H]1/C=C/c1ccccc1` [Example 33, 4-(Piperidin-1-yl)-piperidin-1-yl 3(R)-[3(S)-(4(S)-phenyloxazolidin-2-on-3-yl)-3-methyl-4(R)-(styr-2-yl)azetidin-2-on-1-yl]-3-[(3-trifluoromethyl)phenylmethylaminocarbonyl]propanoic acid], the half-inhibitory concentration (IC50) – broadly, the concentration that inhibits the measured activity by half – was 5 nM. This lies in the single-digit nanomolar range.
